Measurements published in patent EP0449699A2, “Pyrazole derivatives as angiotensin II-receptor antagonists, process for their preparation and pharmaceutical compositions containing them” (LABORATOIRES UPSA, priority 1990, dated 1991).

System: récepteurs surrénaliens de l'angiotensine II
Assay: Displacement of radioligand [125I]-SIAII specifically bound to adrenal angiotensin II receptors (rat adrenal homogenate)
Format: binding
Settings: 60 min, 25°C
Description: L'affinité des produits des exemples pour les récepteurs de l'angiotensine II est évaluée par technique de déplacement d'un radioligand spécifiquement fixé sur les récepteurs surrénaliens de l'angiotensine Il, chez le rat.
Une aliquote d'un homogénat de surrénales de rat incube en présence d'une concentration unique de [^125I]-SIAII (Sar^1, Tyr^4, Ile^8 - angiotensine II), antagoniste des récepteurs de l'angiotensine II, et de deux concentrations d'agents compétiteurs (10^-5 M, 10-^7 M) durant 60 min à 25°C.
La réaction est achevée par ajout de tampon, puis rapide filtration à travers des filtres de papier de verre. La liaison non spécifique est déterminée en présence d'angiotensine Il.
Les résultats sont exprimés, pour les concentrations testées, en pourcentage de déplacement du radioligand spécifiquement fixé sur les récepteurs surrénaliens de l'angiotensine Il.

SMILES	% de déplacement du ligand marqué (competitor 1E-5 M, 10 µM) [%]	% de déplacement du ligand marqué (competitor 1E-7 M, 0.1 µM) [%]
CCCc1nn(C)c(OC(=O)N(C)C)c1Cc1ccc(NC(=O)c2ccccc2S(=O)(=O)O)cc1 [Exemple 54, Acide [[Méthyl-1 n-propyl-3 (N,N-diméthyl carbamoyl)oxy-5 pyrazol-yl-4]méthylphényl-yl-4] aminocarbonyl-2 benzène sulfonique]	77	62
CCCCc1nn(CC(F)(F)F)c(OC(=O)N(C)C)c1Cc1ccc(-c2ccccc2-c2nn[nH]n2)cc1 [Exemple 80, (Trifluoro-2,2,2 éthyl)-1 n-Butyl-3 [(tétrazolyl-5)-2'biphényl-yl-4] méthyl-4 (N,N-diméthyl carbamoyl) oxy-5 pyrazole]	69	48
CCCc1nn(C)c(OCC(=O)O)c1Cc1ccc(NC(=O)c2ccccc2S(=O)(=O)O)cc1 [Exemple 35, Acide [Méthyl-1 n-propyl-3 [(sulfo-2 benzoyl amino)-4 benzyl]-4 pyrazol-yl-5] oxy acétique]	85	48
CCCCc1nn(C)c(COC)c1Cc1ccc(-c2ccccc2-c2nnn[nH]2)cc1 [Exemple 118, Méthyl-1 n-Butyl-3 [(tétrazolyl-5)2' biphényl-yl-4] méthyl-4 méthoxy méthyl-5 pyrazole]	67	35
CCCc1nn(C)c(OCC(=O)OCC)c1Cc1ccc(NC(=O)c2c(Cl)ccc(Cl)c2C(=O)O)cc1 [Exemple 30, [Méthyl-1 n-propyl-3 ((carboxy-2 dichloro-3,6-benzoyl amino)-4 benzyl)-4 pyrazol-yl-5] oxyacétate d'éthyle]	96	63
CCCc1nn(CC(F)(F)F)c(OCC(=O)OC)c1Cc1ccc(NC(=O)c2c(Cl)ccc(Cl)c2C(=O)O)cc1 [Exemple 32, [(trifluoro-2,2,2 éthyl)-1 n-propyl-3 ((carboxy-2 dichloro-3,6-benzoyl amino)-4 benzyl)-4 pyrazol-yl-5] oxyacétatede méthyle]	98	52
CCCc1nn(C)c(COC)c1Cc1ccc(-c2ccccc2-c2nnn[nH]2)cc1 [Exemple 117, Méthyl-1 n-propyl-3 [(tétrazolyl-5)-2'biphényl-yl-4] méthyl-4 méthoxy méthyl-5 pyrazole]	61	35
CCCCc1nn(C)c(OCC(=O)OCC)c1Cc1ccc(-c2ccccc2-c2nn[nH]n2)cc1 [Exemple 90, [Méthyl-1 n-Butyl-3 [(tétrazolyl-5)-2'blphényl-yl-4]méthyl-4 pyrazol-yl-5] oxy acétate d'éthyle]	64	40
CCCc1nn(CC(F)(F)F)c(OCCO)c1Cc1ccc(NC(=O)c2ccccc2S(=O)(=O)O)cc1 [Exemple 63, Acide [[(trffiuoro-2,2,2 éthyl)-1 n-Propyl-3 (hydroxy-2 éthoxy)-5 pyrazol-yl-4]méthyl-4 phényl-yl-4] amino carbonyl-2 benzène sulfonique]	91	64
CCCc1nn(C)c(OCC(=O)OC)c1Cc1ccc(-c2ccccc2NS(=O)(=O)C(F)(F)F)cc1 [Exemple 135, [Méthyl-1 n-Propyl-3 (trifluoro méthyl sulfonyl amlmo-2'blphényl-yl-4)méthyl-4 pyrazol-yl-5] oxy acétatede méthyle]	65	34
CCCc1nn(C)c(OCCO)c1Cc1ccc(-c2ccccc2C(=O)O)cc1 [Exemple 137, [Méthyl-1 n-Propyl-3 (carboxy-2'blphényl-yl-4)méthyl-4 pyrazol-yl-5]oxy-2 éthanol]	63	5
CCCc1nn(CC(F)(F)F)c(OC(=O)N(C)C)c1Cc1ccc(NC(=O)c2ccccc2S(=O)(=O)O)cc1 [Exemple 60, Acide [[(trifluoro-2,2,2 éthyl)-1 n-Propyl-3 (N,N-diméthyl carbamoyl)oxy-5 pyrazol-yl-4]méthylphényl-yl-4] amino carbonyl-2 benzène sulfonique]	84	49
CCCc1nn(C)c(OCC(=O)OC)c1Cc1ccc(NC(=O)c2ccccc2C(=O)O)cc1 [Exemple 28, [Méthyl-1 n-propyl-3 ((carboxy-2 benzoyl amino)-4 benzyl)-4 pyrazol-yl-5] oxyacétatede méthyle]	82	34
CCCCc1nn(C)c(OC(=O)N(C)C)c1Cc1ccc(-c2ccccc2-c2nn[nH]n2)cc1 [Exemple 82, Méthyl-1 n-Butyl-3 [(tétrazolyl-5)-2' biphényl-yl-4] méthyl-4 (N,N-diméthyl carbamoyl) oxy-5 pyrazole]	71	47
CCCc1nn(CC(F)(F)F)c(O)c1Cc1ccc(-c2ccccc2-c2nnn[nH]2)cc1 [Exemple 74, (Trifluoro-2,2,2 éthyl)-1 n-Propyl-3 hydroxy-5 [(tétrazolyl-5)-2' biphényl-yl-4] méthyl-4 pyrazole]	66	58
CCCc1nn(C)c(OC(=O)N(C)C)c1Cc1ccc(-c2ccccc2-c2nn[nH]n2)cc1 [Exemple 86, Méthyl-1 n-Propyl-3 [(tétrazolyl-5)-2' biphényl-yl-4] méthyl-4 (N,N-diméthyl carbamoyl) oxy-5 pyrazole]	58	41
CCCCc1nn(CC(F)(F)F)c(COC)c1Cc1ccc(-c2ccccc2-c2nnn[nH]2)cc1 [Exemple 119, (Trifluoro-2,2,2 éthyl)-1 n-butyl-3 [(tétrazolyl-5)-2' biphényl-yl-4] méthyl-4 méthoxy méthyl-5 pyrazole]	70	54
CCCCc1nn(C)c(O)c1Cc1ccc(-c2ccccc2C(=O)O)cc1 [Exemple 36, Acide [Méthyl-1 n-butyl-3 hydroxy-5 pyrazol-yl-4] méthyl-4' biphényl-2 carboxylique]	62	10
CCCc1nn(CC(F)(F)F)c(OCC(=O)OCC)c1Cc1ccc(-c2ccccc2-c2nn[nH]n2)cc1 [Exemple 84, ((Trifluoro-2,2,2 éthyl)-1 n-Propyl-3 [(tétrazolyl-5)-2' biphényl-yl-4]méthyl-4 pyrazol-yl-5] oxy acétate d'éthyle]	65	51
CCCc1nn(CC(=O)OCC)c(OCC(=O)OCC)c1Cc1ccc(NC(=O)c2c(Cl)ccc(Cl)c2C(=O)O)cc1 [Exemple 44, Acide [[(Ethoxy carbonyl méthyl)-1 n-propyl-3 (Ethoxy carbonyl méthyloxy)-5 pyrazol-yl-4]méthylphényl-yl-4] amino carbonyl-2 dlchloro-3,6-benzoïque]	96	9
CCCCc1nn(C)c(OCCO)c1Cc1ccc(NC(=O)c2ccccc2S(=O)(=O)O)cc1 [Exemple 51, Acide [[Méthyl-1 n-butyl-3 (hydroxy-2 éthoxy)-5 pyrazol-yl-4]méthylphényl-yl-4] amino carbonyl-2 benzène sulfonique]	83	60
CCCc1nn(C)c(OC(=O)N(CC)CC)c1Cc1ccc(NC(=O)c2ccccc2S(=O)(=O)O)cc1 [Exemple 57, Acide [[Méthyl-1 n-Propyl-3 (N,N-diéthyl carbamoyl)oxy-5 pyrazol-yl-4]méthylphényl-yl-4] amino carbonyl-2 benzène sulfonique]	80	60
CCCCc1nn(C)c(OCC(=O)O)c1Cc1ccc(-c2ccccc2C(=O)O)cc1 [Exemple 37, Acide [Méthyl-1 n-butyl-3 (carboxy-2' biphényl-yl-4)méthyl-4 pyrazol-yl-5] oxyacétique]	58	9
CCCCc1nn(C)c(OCC(=O)N2CCOCC2)c1Cc1ccc(NC(=O)c2ccccc2NS(=O)(=O)C(F)(F)F)cc1 [Exemple 130, N-[[Méthyl-1 n-Butyl-3 [(trifluoro méthyl sulfonyl amino-2 benzoyl)amino-4 benryl]-4 pyrazol-yl-5]oxyacétyl] morpholine]	74	33
CCCc1nn(C)c(OCC(=O)OC)c1Cc1ccc(NC(=O)c2c(Cl)ccc(Cl)c2C(=O)O)cc1 [Exemple 31, [Méthyl-1 n-propyl-3 ((carboxy-2 dlchloro-3,6-benzoyl amino)-4 benzyl)-4 pyrazol-yl-5] oxyacétatede méthyle]	93	60
CCCc1nn(C)c(OCC(=O)OCC)c1Cc1ccc(NC(=O)c2ccccc2C(=O)O)cc1 [Exemple 29, [Méthyl-1 n-propyl-3 ((carboxy-2 benzoyl amino)-4 benzyl)-4 pyrazol-yl-5] oxyacétate d'éthyle]	80	40
CCCc1nn(C)c(OCCO)c1Cc1ccc(-c2ccccc2-c2nn[nH]n2)cc1 [Exemple 88, [Méthyl-1 n-Propyl-3 [(tétrazolyl-5)-2'biphényl-yl-4]méthyl-4 pyrazol-yl-5]oxy-2 éthanol]	60	38
